Source: patent publication US20240368133A1, “Compounds for the Treatment of Pain, in Particular, Neuropathic Pain, and/or Other Diseases or Disorders that are Associated with AT2R and/or AT2R Mediated Signaling” (Confo Therapeutics N.V., priority 2021, published 2024)

Columns and labels:
[1] = target: human AT1R (Homo sapiens (Human), UniProt P30556); experiment: Counterscreen radioligand binding assay, displacement of 125I-[Sar1, Ile8]-Angiotensin II, hAT1R WT; settings: for inhibition at 1 µM / inhibition at 10 µM: 125I-[Sar1, Ile8]-Ang II, semi-quantitative score; for inhibition at 1 µM: compound at 1 μM, read-out: % Displaced radioligand at 1 μM; for inhibition at 10 µM: compound at 10 μM, read-out: % Displaced radioligand at 10 μM; for IC50: HEK-293 cell membranes, read-out: Binding affinity On hAT1R IC50
Summary of the method: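 Compounds displaced 0.05 nM 125I-[Sar1, Ile8]-Ang II from human AT1R in HEK-293 membranes (1 h, 25° C; Tris/MgCl2/EDTA/BSA buffer, pH 7.4). Readout was filtration and scintillation counting, with non-specific binding set by 10 μM [Sar1]-Ang II. Values are % displacement at 1 μM and […], or IC50 from eight-point four-parameter fits.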

[2] = target: human AT2R fused to Cb23 (Homo sapiens, UniProt P50052); experiment: Radioligand binding assay, displacement of 125I-[Sar1, Ile8]-Angiotensin II, hAT2R Cb23; settings: displacement of 125I-[Sar1, Ile8]-Angiotensin II, human AT2R fused to Cb23, HEK-293 cell membrane preparations; read-out: Binding affinity on hAT2R_Cb23 IC50
Summary of the method: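 Membranes from HEK-293 cells expressing human AT2R fused to Cb23 were incubated with 0.05 nM 125I-[Sar1, Ile8]-Angiotensin II in 100 μL buffer (50 mM Tris, 5 mM MgCl2, 1 mM EDTA, 0.1% BSA, pH 7.4) for one hour at 25° C. Ligands were tested as eight-point dose-response curves in duplicate, with C21 and Angiotensin II as references.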

Sequence of human AT2R fused to Cb23 (P50052 whole entry, looked up, the tested form may be a part): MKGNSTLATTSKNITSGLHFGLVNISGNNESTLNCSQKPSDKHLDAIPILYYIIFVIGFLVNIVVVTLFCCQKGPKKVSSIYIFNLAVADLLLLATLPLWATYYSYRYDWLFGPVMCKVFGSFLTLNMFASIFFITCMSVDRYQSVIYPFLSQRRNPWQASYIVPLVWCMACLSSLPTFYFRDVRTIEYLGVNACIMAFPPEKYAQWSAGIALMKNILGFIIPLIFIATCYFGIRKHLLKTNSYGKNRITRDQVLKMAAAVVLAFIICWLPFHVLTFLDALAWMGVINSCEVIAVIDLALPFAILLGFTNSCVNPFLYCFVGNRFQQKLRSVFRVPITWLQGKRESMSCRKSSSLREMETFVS
Sequence of human AT1R (P30556 whole entry): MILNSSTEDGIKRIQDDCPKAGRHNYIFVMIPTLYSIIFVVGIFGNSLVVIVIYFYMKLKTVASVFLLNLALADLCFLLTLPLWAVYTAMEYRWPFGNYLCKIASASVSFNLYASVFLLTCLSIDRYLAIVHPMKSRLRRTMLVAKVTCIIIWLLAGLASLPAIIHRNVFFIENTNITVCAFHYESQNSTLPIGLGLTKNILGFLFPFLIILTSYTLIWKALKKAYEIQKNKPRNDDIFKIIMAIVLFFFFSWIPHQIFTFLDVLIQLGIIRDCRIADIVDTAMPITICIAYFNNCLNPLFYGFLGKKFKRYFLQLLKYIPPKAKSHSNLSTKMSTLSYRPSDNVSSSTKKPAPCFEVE

SMILES	inhibition at 1 µM [1] [%]	inhibition at 10 µM [1] [%]	IC50 [1] [µM]	IC50 [2] [µM]
CCc1nc2ccc(N(Cc3cccnc3)C(=O)c3cccs3)cc2c(=O)n1CC1CCN(c2ccccc2-c2nn[nH]n2)CC1 [Compound A-244, N-[2-ethyl-4-oxo-3-[[1-[2-(2H-tetrazol-5-yl)phenyl]-4-piperidyl]methyl]quinazolin-6-yl]-N-(3-pyridylmethyl)thiophene-2-carboxamide]	< 30	> 50	6.62	0.104
CCc1nc2ccc(N(Cc3ccccc3)C(=O)c3cccs3)cc2c(=O)n1CC1CCN(c2ccccc2-c2nn[nH]n2)CC1 [Compound A-246, N-benzyl-N-[2-ethyl-4-oxo-3-[[1-[2-(2H-tetrazol-5-yl)phenyl]-4-piper-idyl]methyl]quin-azolin-6-yl]thio-phene-2-carbox-amide]	< 30	30 to 50	26.7	0.102
CCc1nc2ccc(N(Cc3ccccc3Cl)C(=O)c3cccs3)cc2c(=O)n1CC1CCN(c2ccccc2-c2nn[nH]n2)CC1 [Compound A-248, N-[(2-chlorophenyl)methyl]-N-[2-ethyl-4-oxo-3-[[1-[2-(2H-tetrazol-5-yl)phenyl]-4-piperidyl]methyl]quinazolin-6-yl]thiophene-2-carboxamide]	< 30	< 30	40.1	0.048
